# Patent US20220396565A1 (Hoffmann-La Roche Inc., priority 2020, published 2022)
# Counter-ions that a name gives are not always drawn.
# Test system: Acinetobacter baumannii ATCC17961
# Assay: Antimicrobial susceptibility testing: 90% growth inhibitory concentration (IC90) determination, Iso-Sensitest broth
# Type: cell-based
# Settings: 90% growth inhibitory concentration, Acinetobacter baumannii ATCC17961, Iso-Sensitest broth; read-out: ATCC 17961 IC90
# Method in brief: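 Growth at OD600 was monitored every 20 min for 16 h at 35±2 °C, with bacteria inoculated at ~5×10^(5) CFU/ml into Iso-Sensitest medium. Compounds were tested as 10-point twofold dilutions (e.g. 10–0.02 μM final). The 90% inhibitory concentration comes from the log-phase growth.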
row,SMILES,IC90
1,"COc1ccc(-c2cnc(C(=O)Nc3ccc(C(=O)N4CCN(C(=O)C5CCN(S(=O)(=O)CCN)CC5)CC4)c(Cl)c3)n2C)c(F)c1F [Example 242, N-[4-[4-[1-(2-aminoethylsulfonyl)pipe-ridine-4-carbonyl]piperazine-1-carbonyl]-3-chloro-phenyl]-5-(2,3-difluoro-4-methoxy-phenyl)-1-methyl-imidazole-2-carboxamide]",0.09 µM

# Same assay, conditions: Acinetobacter baumannii, ATCC17961, 90% growth inhibitory concentration, Acinetobacter baumannii ATCC17961, Iso-Sensitest broth; read-out: ATCC 17961 IC90
row,SMILES,IC90
1,"COc1ccc(-c2cnc(C(=O)Nc3ccc(C(=O)N4CCN(C(=O)CCC#N)CC4)c(Cl)c3)n2C)c(F)c1F [Example 134, N-[3-chloro-4-[4-(3-cyanopropanoyl)piperazine-1-carbonyl]phenyl]-5-(2,3-difluoro-4-methoxy-phenyl)-1-methyl-imidazole-2-carboxamide]",0.1 µM
2,"COc1ccc(-c2cnc(C(=O)Nc3ccc(C(=O)N4CCC(OCCN)CC4)c(Cl)c3)n2C)c(F)c1F [Example 22, N-[4-[4-(2-aminoethoxy)piperidine-1-carbonyl]-3-chloro-phenyl]-5-(2,3-difluoro-4-methoxy-phenyl)-1-methyl-imidazole-2-carboxamide formate]",0.04 µM
3,"COc1ccc(-c2cnc(C(=O)Nc3ccc(C(=O)N4CCN(C(=O)C[C@H]5CCNC5)CC4)c(Cl)c3)n2C)c(F)c1F [Example 153, N-[3-chloro-4-[4-[2-[(3R)-pyrrolidin-3-yl]acetyl]piperazine-1-carbonyl]phenyl]-5-(2,3-difluoro-4-methoxy-phenyl)-1-methyl-imidazole-2-carboxamide formate]",0.06 µM
4,"COc1ccc(-c2cnc(C(=O)Nc3ccc(C(=O)N4CCC(NC(=O)C5CCNCC5)C4)c(Cl)c3)n2C)c(F)c1F (stereo not drawn) [Example 110, N-[1-[2-chloro-4-[[5-(2,3-difluoro-4-methoxy-phenyl)-1-methyl-imidazole-2-carbonyl]amino]benzoyl]pyrrolidin-3-yl]piperidine-4-carboxamide formate]",0.18 µM
5,"COc1ccc(-c2cnc(C(=O)Nc3ccc(C(=O)N4CCC(C(=O)N5CC(N)C5)CC4)c(Cl)c3)n2C)c(F)c1F [Example 33, N-[4-[4-(3-aminoazetidine-1-carbonyl)piperidine-1-carbonyl]-3-chloro-phenyl]-5-(2,3-difluoro-4-methoxy-phenyl)-1-methyl-imidazole-2-carboxamide trifluoroacetate]",0.09 µM
6,"Cc1cc(NC(=O)c2ncc(-c3ccc(OCC#N)c(F)c3F)n2C)ccc1C(=O)N1CCC(C(=O)N2CCO[C@H](CN)C2)CC1 [Example 83, (R)-N-(4-(4-(2-(aminomethyl)morpholine-4-carbonyl)piperidine-1-carbonyl)-3-methylphenyl)-5-(4-(cyanomethoxy)-2,3-difluorophenyl)-1-methyl-1H-imidazole-2-carboxamide 2,2,2-trifluoroacetate]",0.17 µM
7,"COc1ccc(-c2cnc(C(=O)Nc3ccc(C(=O)N4CCN(C(=O)C56CC(N)(C5)C6)CC4)c(Cl)c3)n2C)c(F)c1F [Example 132, N-[4-[4-(3-aminobicyclo[1.1.1]pentane-1-carbonyl)piperazine-1-carbonyl]-3-chloro-phenyl]-5-(2,3-difluoro-4-methoxy-phenyl)-1-methyl-imidazole-2-carboxamide formate]",0.07 µM
8,"COc1ccc(-c2cnc(C(=O)Nc3ccc(C(=O)N4CCN(C(=O)C5CCC(=O)N5)CC4)c(Cl)c3)n2C)c(F)c1F (stereo not drawn) [Example 126, N-[3-chloro-4-[4-(5-oxopyrrolidine-2-carbonyl)piperazine-1-carbonyl]phenyl]-5-(2,3-difluoro-4-methoxy-phenyl)-1-methyl-imidazole-2-carboxamide]",0.11 µM
9,"COc1ccc(-c2cnc(C(=O)Nc3ccc(C(=O)N4CCC(OCC5CNC5)CC4)c(Cl)c3)n2C)c(F)c1F [Example 23, N-[4-[4-(azetidin-3-ylmethoxy)piperidine-1-carbonyl]-3-chloro-phenyl]-5-(2,3-difluoro-4-methoxy-phenyl)-1-methyl-imidazole-2-carboxamide formate]",0.06 µM

# The next lines start with the values.
row,IC90,SMILES
1,0.03 µM,"CN(C)CC(=O)N1CCN(C(=O)c2ccc(NC(=O)c3ncc(-c4ccc(OC(F)F)c(F)c4F)n3C)cc2Cl)CC1 [Example 156, N-[3-chloro-4-[4-[2-(dimethylamino)acetyl]piperazine-1-carbonyl]phenyl]-5-[4-(difluoromethoxy)-2,3-difluoro-phenyl]-1-methyl-imidazole-2-carboxamide formate]"
2,0.1 µM,"COc1ccc(-c2cnc(C(=O)Nc3ccc(C(=O)N4CCN(C(=O)C5CC(C(N)=O)C5)CC4)c(Cl)c3)n2C)c(F)c1F (stereo not drawn) [Example 280, N-(4-(4-(3-carbamoylcyclobutane-1-carbonyl)piperazine-1-carbonyl)-3-chlorophenyl)-5-(2,3-difluoro-4-methoxyphenyl)-1-methyl-1H-imidazole-2-carboxamide]"
3,0.13 µM,"COc1ccc(-c2cnc(C(=O)Nc3ccc(C(=O)N4CCC(NS(C)(=O)=O)CC4)c(Cl)c3)n2C)c(F)c1F [Example 238, N-[3-chloro-4-[4-(methanesulfonamido)piperidine-1-carbonyl]phenyl]-5-(2,3-difluoro-4-methoxy-phenyl)-1-methyl-imidazole-2-carboxamide]"
4,0.07 µM,"Cn1c(-c2ccc(OCC#N)c(F)c2F)cnc1C(=O)Nc1ccc(C(=O)N2CCN(C(=O)C3CNCC(O)C3)CC2)c(Cl)c1 (stereo not drawn) [Example 214, N-(3-chloro-4-(4-(5-hydroxypiperidine-3-carbonyl)piperazine-1-carbonyl)phenyl)-5-(4-(cyanomethoxy)-2,3-difluorophenyl)-1-methyl-1H-imidazole-2-carboxamide 2,2,2-trifluoroacetate]"
5,0.04 µM,"COc1ccc(-c2cnc(C(=O)Nc3ccc(C(=O)N4CCN(C(=O)N[C@H]5CNC[C@@H]5O)CC4)c(Cl)c3)n2C)c(F)c1F [Example 283, 4-[2-chloro-4-[[5-(2,3-difluoro-4-methoxy-phenyl)-1-methyl-imidazole-2-carbonyl]ami-no]benzoyl]-N-[(3R,4R)-4-hydroxypyrrolidin-3-yl]piperazine-1-carboxamide formate]"
6,0.18 µM,"COc1ccc(-c2cnc(C(=O)Nc3ccc(C(=O)N4C[C@H]5CN(C(=O)CN(C)C)C[C@H]5C4)c(Cl)c3)n2C)c(F)c1F [Example 190, N-[4-[(3aS,6aR)-2-[2-(dimethylamino)acetyl]-1,3,3a,4,6,6a-hexahydropyrrolo[3,4-c]pyrrole-5-carbonyl]-3-chloro-phenyl]-5-(2,3-difluoro-4-methoxy-phenyl)-1-methyl-imidazole-2-carboxamide formate]"
7,0.05 µM,"COc1ccc(-c2cnc(C(=O)Nc3ccc(C(=O)N4CCN(C(=O)C5CNC5)CC4)c(Cl)c3)n2C)c(F)c1F [Example 165, N-[4-[4-(azetidine-3-carbonyl)piperazine-1-carbonyl]-3-chloro-phenyl]-5-(2,3-difluoro-4-methoxy-phenyl)-1-methyl-imidazole-2-carboxamide formate]"
8,0.32 µM,"COc1ccc(-c2cnc(C(=O)Nc3ccc(C(=O)N4CCN(S(C)(=O)=O)CC4)c(Cl)c3)n2C)c(F)c1F [Example 240, N-[3-chloro-4-(4-methylsulfonylpiperazine-1-carbonyl)phenyl]-5-(2,3-difluoro-4-methoxy-phenyl)-1-methyl-imidazole-2-carboxamide]"
9,0.06 µM,"COc1ccc(-c2cnc(C(=O)Nc3ccc(C(=O)N4CCN(C(=O)C5CC(CN)C5)CC4)c(Cl)c3)n2C)c(F)c1F (stereo not drawn) [Example 185, N-[4-[4-[3-(aminomethyl)cyclobutanecarbonyl]piperazine-1-carbonyl]-3-chloro-phenyl]-5-(2,3-difluoro-4-methoxy-phenyl)-1-methyl-imidazole-2-carboxamide formate]"
10,0.04 µM,"Cn1c(-c2ccc(OCF)c(F)c2F)cnc1C(=O)Nc1ccc(C(=O)N2CCN(C(=O)[C@@H]3CCNC3)CC2)c(Cl)c1 [Example 155, N-[3-chloro-4-[4-[(3R)-pyrrolidine-3-carbonyl]piperazine-1-carbonyl]phenyl]-5-[2,3-difluoro-4-(fluoromethoxy)phenyl]-1-methyl-imidazole-2-carboxamide formate]"

# Same assay, conditions: Acinetobacter baumannii, ATCC17961, read-out: ATCC 17961 IC90
row,SMILES,IC90
1,"COc1ccc(-c2cnc(C(=O)Nc3ccc(C(=O)N4CCC(C(=O)N[C@@H](C)CN)CC4)c(Cl)c3)n2C)c(F)c1F [Example 28, N-[(1S)-2-Amino-1-methyl-ethyl]-1-[2-chloro-4-[[5-(2,3-difluoro-4-methoxy-phenyl)-1-methyl-imidazole-2-carbonyl]amino]benzoyl]piperidine-4-carboxamide trifluoroacetate]",0.17 µM
2,"COc1ccc(-c2cnc(C(=O)Nc3ccc(C(=O)N4CCN(C(=O)CCOCCNC(=O)CN(C)C)CC4)c(Cl)c3)n2C)c(F)c1F [Example 299, N-[3-Chloro-4-[4-[3-[2-[[2-(dimethylamino)acetyl]amino]ethoxy]propanoyl]piperazine-1-carbonyl]phenyl]-5-(2,3-difluoro-4-methoxy-phenyl)-1-methyl-imidazole-2-carboxamide]",0.15 µM
3,"Cn1c(-c2ccc(OCC#N)c(F)c2F)cnc1C(=O)Nc1ccc(C(=O)N2CCN(C(=O)[C@@H]3CCCCN3)CC2)c(Cl)c1 [Example 211, (S)-N-(3-chloro-4-(4-(piperidine-2-carbonyl)piperazine-1-carbonyl)phenyl)-5-(4-(cyanomethoxy)-2,3-difluorophenyl)-1-methyl 1H-imidazole-2-carboxamide formate]",0.05 µM
4,"Cn1c(-c2ccc(OCC#N)c(F)c2F)cnc1C(=O)Nc1ccc(C(=O)N2CCN(CCNCC(N)=O)CC2)c(Cl)c1 [Example 287, N-[4-[4-[2-[(2-amino-2-oxoethyl)amino]ethyl]piper-azine-1-carbonyl]-3-chloro-phenyl]-5-[4-(cyanomethoxy)-2,3-difluoro-phenyl]-1-methyl-imidazole-2-carboxamide formate]",0.14 µM
